Measured values as given in US20200370022A1, “MALIGNANT HEMATOPOIETIC CELL MICROCOMPARTMENT AND METHOD FOR PREPARING SUCH A MICROCOMPARTMENT” (UNIVERSITE DE BORDEAUX, priority 2017, published 2020).
Converted amounts (≈) assume the structure as drawn.

Tested on: DLBCL SUDHL4 cells
Experiment: CellTiter-Glo 3D cell viability (intracellular ATP) after 48 h drug treatment, 2D suspension vs 3D microcompartments
Format: cell-based
Settings: Homo sapiens, SU-DHL-4, 48 h
Experimental: FIG. 11: Comparison of the cytotoxic effects of doxorubicin and of etoposide on DLBCL SUDHL4 cells grown in 2D (suspension) or in 3D ± ECM ± Resto. Cells or spheroids at D7 post-encapsulation are treated for 48 h with drugs. At the end of the treatment, cell viability is measured using the CellTiter-Glo® 3D Cell Viability Assay Kit (Promega).
As shown above, drug diffusion is altered in the 3D structures according to the invention. The purpose of the present experiment is to verify whether this alteration is correlated with chemoresistance. For this purpose, the efficacy of two conventional chemotherapies (doxorubicin and etoposide) was tested in parallel on cells grown in suspension (2D) and on cell clusters from cellular microcompartments according to the invention, containing lymphomatous cells alone or in the presence of ECM, with or without Resto stromal cells, treated with increasing concentrations of these chemotherapy molecules.
After 48 h of incubation, cell survival was assessed by measuring intracellular ATP using the CellTiter-Glo® 3D Cell Viability Assay Kit (Promega).

[1] = 3D (lymphomatous cells alone), SUDHL4, D7 post-encapsulation, 48 h
[2] = 3D + ECM + Resto, SUDHL4, D7 post-encapsulation, 48 h
[3] = 3D + ECM, SUDHL4, D7 post-encapsulation, 48 h

IC50 (2D (suspension), SUDHL4, 48 h) | IC50 [1] | IC50 [2] | IC50 [3] | SMILES
0.09 µg/mL (≈ 0.166 µM) | 0.4 µg/mL (≈ 0.736 µM) | 0.4 µg/mL | 0.4 µg/mL | COc1cccc2c1C(=O)c1c(O)c3c(c(O)c1C2=O)C[C@@](O)(C(=O)CO)C[C@@H]3O[C@H]1C[C@H](N)[C@H](O)[C@H](C)O1 [Doxorubicin, doxorubicin]
3.2 µg/mL (≈ 5.44 µM) | 4.4 µg/mL (≈ 7.48 µM) | 7 µg/mL | 9.3 µg/mL | COc1cc([C@@H]2c3cc4c(cc3[C@@H](O[C@@H]3O[C@@H]5CO[C@@H](C)O[C@H]5[C@H](O)[C@H]3O)[C@H]3COC(=O)[C@H]23)OCO4)cc(OC)c1O [Etoposide, etoposide]
